{"source": "patent US20130137664A1", "about": "“LOW-DOSED SOLID ORAL DOSAGE FORMS FOR HRT” (BAYER INTELLECTUAL PROPERTY GMBH, priority 2010, published 2013)", "origin": "cited, not measured here", "system": "moderate or severe hot flushes in menopausal women", "details": "2 mg E2"}
{"smiles": "C[C@]12CC[C@@H]3c4ccc(O)cc4CC[C@H]3[C@@H]1CC[C@@H]2O", "note": "[E2, estradiol]", "values": [{"measurement": "estrogen-related adverse events", "result": "increased"}]}
